From patent publication US20230226005A1, “Methods of Treating, Ameliorating, Shortening Duration, and/or Reversing Symptoms and/or Complications of a Coronavirus Infection” (Yale University, priority 2020, published 2023)

How the values were obtained:
[1] = test system: COVID-19 infection; assay: Phase IIa study: throat-family symptom score; format: in vivo
[2] = test system: COVID-19 infection; assay: Phase IIa study: COVID-19 PRO frequency score; format: in vivo, human
Text: Subjects were enrolled in two cohorts. The treatment cohort consists of subjects receiving camostat mesylate, and the control cohort consists of subjects receiving a placebo. […] The control cohort received a placebo four times daily for seven days.
Subjects self-administered Likert-type symptom score evaluations daily from days 0-14, wherein subjects provided a ranking (i.e., 0—not at all, 1—a little bit, 2—somewhat, 3—quite a bit, and 4—very much) in response to various symptoms (e.g., nose, throat, eyes, chest/respiratory, gastrointestinal, body/systemic, and smell/taste symptoms) (Table 1).
The COVID-19 PRO daily self-score tool consists of 39 items that are answered daily by the subject. Items 1-33 are Likert-scale questions (e.g., rated 0-4), wherein 0=not at all, and 4=very much. These items are summed to score the severity of symptoms, wherein a total score of 132 would indicate the greatest severity of symptoms and a score of 0 would indicate no severity of symptoms.
Additional statistical models were applied to the raw data, which are provided herein (Tables 8-10).

[3] = test system: COVID-19 infection; assay: Phase IIa study: body-family symptom score; format: in vivo; conditions: for body-family symptoms, Fitzmaurice mixed effects model, Effect: Camostat vs Placebo

For CN(C)C(=O)COC(=O)Cc1ccc(OC(=O)c2ccc(NC(=N)N)cc2)cc1 [camostat, 4-[[4-[(Aminoiminomethyl)amino]benzoyl]oxy]benzeneacetic acid 2-(dimethylamino)-2-oxoethyl ester], the “throat-family symptom score, Fitzmaurice model, Effect (placebo vs camostat)” value ([1]; day 7) was −0.3 (0.4), the “throat-family symptom score, Fitzmaurice model, Camostat” value ([1]; day 8) was 0.6 (0.4) and the “throat-family symptom score, Fitzmaurice model, Effect (placebo vs camostat)” value ([1]; day 8) was −0.2 (0.4). For the same compound, the “throat-family symptom score, Fitzmaurice model, Camostat” value ([1]; day 9) was 0.4 (0.4), the “throat-family symptom score, Fitzmaurice model, Effect (placebo vs camostat)” value ([1]; day 9) was −0.1 (0.4) and the “throat-family symptom score, Fitzmaurice model, Camostat” value ([1]; day 10) was 0.5 (0.4). The “throat-family symptom score, Fitzmaurice model, Effect (placebo vs camostat)” value ([1]; day 10) was −0.4 (0.4), the “throat-family symptom score, Fitzmaurice model, Camostat” value ([1]; day 11) was 0.6 (0.4) and the “throat-family symptom score, Fitzmaurice model, Effect (placebo vs camostat)” value ([1]; day 11) was −0.4 (0.4). For the same compound, the “throat-family symptom score, Fitzmaurice model, Camostat” value ([1]; day 12) was 0.5 (0.4), the “throat-family symptom score, Fitzmaurice model, Effect (placebo vs camostat)” value ([1]; day 12) was −0.4 (0.4) and the “throat-family symptom score, Fitzmaurice model, Camostat” value ([1]; day 13) was 0.5 (0.4). For the same compound, the “throat-family symptom score, Fitzmaurice model, Effect (placebo vs camostat)” value ([1]; day 13) was −0.4 (0.5), the “throat-family symptom score, Fitzmaurice model, Camostat” value ([1]; day 14) was 0.5 (0.4) and the “throat-family symptom score, Fitzmaurice model, Effect (placebo vs camostat)” value ([1]; day 14) was −0.5 (0.5). The “frequency score, Fitzmaurice mixed effects model, A: Camostat arm” value (“frequency score … Camostat arm” below) ([2]; day 0) was 6.25 (0.47), the “frequency score, Fitzmaurice mixed effects model, B − A (placebo − camostat)” value (“frequency score … (placebo − camostat)” below) ([2]; day 0) was 0 and the “frequency score … Camostat arm” value ([2]; day 1) was 6.49 (0.57). The “frequency score … (placebo − camostat)” value ([2]; day 1) was −0.05 (0.67), the “frequency score … Camostat arm” value ([2]; day 2) was 5.51 (0.59) and the “frequency score … (placebo − camostat)” value ([2]; day 2) was −0.03 (0.68). The “frequency score … Camostat arm” value ([2]; day 3) was 5.88 (0.58), the “frequency score … (placebo − camostat)” value ([2]; day 3) was −0.42 (0.67) and the “frequency score … Camostat arm” value ([2]; day 4) was 5.64 (0.58). For the same compound, the “frequency score … (placebo − camostat)” value ([2]; day 4) was −1.05 (0.68), the “frequency score … Camostat arm” value ([2]; day 5) was 5.54 (0.58) and the “frequency score … (placebo − camostat)” value ([2]; day 5) was −0.96 (0.68). For the same compound, the “frequency score … Camostat arm” value ([2]; day 6) was 4.75 (0.58), the “frequency score … (placebo − camostat)” value ([2]; day 6) was −0.41 (0.68) and the “frequency score … Camostat arm” value ([2]; day 7) was 4.62 (0.59). The “frequency score … (placebo − camostat)” value ([2]; day 7) was −0.51 (0.68), the “frequency score … Camostat arm” value ([2]; day 8) was 4.39 (0.6) and the “frequency score … (placebo − camostat)” value ([2]; day 8) was −0.9 (0.7). For the same compound, the “frequency score … Camostat arm” value ([2]; day 9) was 3.98 (0.59), the “frequency score … (placebo − camostat)” value ([2]; day 9) was −0.54 (0.69) and the “frequency score … Camostat arm” value ([2]; day 10) was 3.96 (0.6). For the same compound, the “frequency score … (placebo − camostat)” value ([2]; day 10) was −0.98 (0.69), the “frequency score … Camostat arm” value ([2]; day 11) was 3.8 (0.6) and the “frequency score … (placebo − camostat)” value ([2]; day 11) was −0.9 (0.7). For the same compound, the “frequency score … Camostat arm” value ([2]; day 12) was 2.75 (0.6), the “frequency score … (placebo − camostat)” value ([2]; day 12) was −0.28 (0.7) and the “frequency score … Camostat arm” value ([2]; day 13) was 2.66 (0.62). For the same compound, the “frequency score … (placebo − camostat)” value ([2]; day 13) was −0.22 (0.72), the “frequency score … Camostat arm” value ([2]; day 14) was 2.44 (0.61) and the “frequency score … (placebo − camostat)” value ([2]; day 14) was −0.13 (0.72). For the same compound, the “body-family symptoms, Fitzmaurice mixed effects model, Camostat” value (from here on “body-family symptoms … Camostat”) ([3]; Day 0) was 17.1 (1.2), the “body-family symptoms … Camostat” value ([3]; Day 1) was 14.3 (1.5) and the “body-family symptoms, Fitzmaurice mixed effects model, Effect” value ([3]; Day 1) was −0.6 (1.7). For the same compound, the “body-family symptoms … Camostat” value ([3]; Day 2) was 13.6 (1.5), the “body-family symptoms, Fitzmaurice mixed effects model, Effect” value ([3]; Day 2) was −2.1 (1.7) and the “body-family symptoms … Camostat” value ([3]; Day 3) was 11.9 (1.5). The “body-family symptoms, Fitzmaurice mixed effects model, Effect” value ([3]; Day 3) was −0.8 (1.7), the “body-family symptoms … Camostat” value ([3]; Day 4) was 8.9 (1.5) and the “body-family symptoms, Fitzmaurice mixed effects model, Effect” value ([3]; Day 4) was 0.9 (1.7). For the same compound, the “body-family symptoms … Camostat” value ([3]; Day 5) was 7.3 (1.5), the “body-family symptoms, Fitzmaurice mixed effects model, Effect” value ([3]; Day 5) was 4.2 (1.7) and the “body-family symptoms … Camostat” value ([3]; Day 6) was 5.2 (1.5). For the same compound, the “body-family symptoms, Fitzmaurice mixed effects model, Effect” value ([3]; Day 6) was 4.4 (1.7), the “body-family symptoms … Camostat” value ([3]; Day 7) was 4.9 (1.6) and the “body-family symptoms, Fitzmaurice mixed effects model, Effect” value ([3]; Day 7) was 2.8 (1.7). The “body-family symptoms … Camostat” value ([3]; Day 8) was 3.9 (1.6), the “body-family symptoms, Fitzmaurice mixed effects model, Effect” value ([3]; Day 8) was 3.1 (1.8) and the “body-family symptoms … Camostat” value ([3]; Day 9) was 3.8 (1.6). For the same compound, the “body-family symptoms, Fitzmaurice mixed effects model, Effect” value ([3]; Day 9) was 3.1 (1.8), the “body-family symptoms … Camostat” value ([3]; Day 10) was 3.3 (1.6) and the “body-family symptoms, Fitzmaurice mixed effects model, Effect” value ([3]; Day 10) was 3.1 (1.8). For the same compound, the “body-family symptoms … Camostat” value ([3]; Day 11) was 3 (1.6), the “body-family symptoms, Fitzmaurice mixed effects model, Effect” value ([3]; Day 11) was 2.8 (1.8) and the “body-family symptoms … Camostat” value ([3]; Day 12) was 3.8 (1.6). The “body-family symptoms, Fitzmaurice mixed effects model, Effect” value ([3]; Day 12) was 1.6 (1.8), the “body-family symptoms … Camostat” value ([3]; Day 13) was 3 (1.6) and the “body-family symptoms, Fitzmaurice mixed effects model, Effect” value ([3]; Day 13) was 2.4 (1.8). The “body-family symptoms … Camostat” value ([3]; Day 14) was 3.2 (1.6) and the “body-family symptoms, Fitzmaurice mixed effects model, Effect” value ([3]; Day 14) was 2 (1.8).
